Experimental data taken from patent publication EP4311546A1, “COMBINATION THERAPY FOR MYOPATHIES” (Dynacure, priority 2022, dated 2024).

Experiments:
mitochondrial division = mitochondrial division inhibitor; cited from earlier work
dynamin 2 = dynamin 2 inhibitor, value stated in the list of known inhibitors; cited from earlier work
Mtm1^-/y mice [1] = assay: Hanging test (whole-body strength) in Mtm1-/y mice; format: in vivo; conditions: at 12 weeks of age, mean ± SD, cut-off 60 seconds, ASO 3 mg/kg i.p. weekly, tamoxifen 10 mg/kg of diet
Procedure: (§1) For experiments in mice, the ASOs were injected intraperitonally (i.p.) weekly from 4 weeks to 12 weeks of age at 3 mg/kg.
(§2) For experiments in mice, pellets of diet were supplemented with tamoxifen citrate (SAFE; […]) to achieve 10 mg of tamoxifen free base per kg of chow. Pellets of diet devoid of tamoxifen were used as a control (to be administered with ASO-ctrl).
Mtm1 deficient mice in the 129Pas genetic background were obtained from Dr. Laporte (IGBMC, Illkirch, France). Wild type males were bred with Mtm1^+/- heterozygous females. The Mtm1^+/y (wild type, i.e. WT) and Mtm1^-/y (mutant) males in the progeny were used in the experiments. The Mtm1^-/y knock-out mice reproduce the hallmarks of XL-CNM patients such as abnormal position of the organelles, defects in the localization of the nuclei and muscle atrophy, associated with progressive muscle weakness including respiratory weakness, leading to death between 6 and 14 weeks of age (Buj-Bello et al., Proc Natl Acad Sci USA, 2002; 99: 15060-15065; Al-Qusairi,et al, Proc Natl Acad Sci USA, 2009; 106: 18763-18768). […]
Whole-body strength of mice was evaluated using the hanging test. […] The latency time for the mouse to fall in the cage was measured, with a cut-off time of 60 seconds. […] The maximum hanging time was recorded. […]

DNM2 = DNM2 protein expression by Western blot in C2C12 cells; format: cell-based, mouse; conditions: C2C12 cells, 5, 10 or 20 µM (with PBS control, or with ASO-ctrl)
Procedure: For experiments in mouse immortalized myoblasts (C2C12 cells), the ASOs were electroporated at 2 μM in 2 mm cuvettes, at 150V for 5 ms (one pulse) for 2 million cells in a volume of 400 μl PBS, or in 4mm cuvettes, at [MUT] for 5 ms (one pulse) for 4 million cells in a volume of 800 μl PBS. […] The [MUT] immortalized myoblast cells were cultured in DMEM with 1g/l glucose (Gibco) with 20% FBS (Gibco) + 40 μg/ml Gentamycin (Gibco). The cells were electroporated with either PBS, ASO-ctrl or ASO-Dnm2 at 2 μM, and/or treated with 4-OH-tamoxifen at 20 μM in the cell culture medium, as described in 1.1. The experiment was done in duplicate wells, in 6-well plates. After 24 hrs of treatment, cells were collected and either RNA was extracted for RT-qPCR or protein was extracted for Western Blot. Myoblast C2C12 cells, treated with either (i) PBS + Tamoxifen (20 μM), (ii) ASO ctrl (2 μM), (iii) ASO ctrl (2 μM) + Tamoxifen (20 μM), (iv) ASO-Dnm2 (2 μM) or (v) ASO-Dnm2 (2 μM) + Tamoxifen (20 μM), were lysed in RIPA buffer (Thermo Scientific) supplemented with Halt protease inhibitor cocktail (Thermo Scientific). Protein concentration was determined with the BioRad DC protein Assay kit. Samples were diluted in RIPA buffer, NuPAGE LDS sample buffer and NuPAGE Sample Reducing Agent and denaturated at 70°C for 10 min. […]

Mtm1^-/y mice [2] = assay: Lifespan / survival of Mtm1-/y mice (XL-CNM model); format: in vivo; conditions: at the end of the study (12 weeks old), ASO 3 mg/kg i.p. weekly from 4 weeks, tamoxifen 10 mg/kg of diet
Procedure: as §1, §2
(§3) Mtm1 deficient mice in the 129Pas genetic background were obtained from Dr. Laporte (IGBMC, Illkirch, France). Wild type males were bred with Mtm1^+/- heterozygous females. The Mtm1^+/y (wild type, i.e. WT) and Mtm1^-/y (mutant) males in the progeny were used in the experiments. The Mtm1^-/y knock-out mice reproduce the hallmarks of XL-CNM patients such as abnormal position of the organelles, defects in the localization of the nuclei and muscle atrophy, associated with progressive muscle weakness including respiratory weakness, leading to death between 6 and 14 weeks of age (Buj-Bello et al., Proc Natl Acad Sci USA, 2002; 99: 15060-15065; Al-Qusairi,et al, Proc Natl Acad Sci USA, 2009; 106: 18763-18768).
Animals were followed for up to 12 weeks old, with weekly recordings of clinical signs and survival. Treatments were started when disease started to manifest, i.e. at 4 weeks of age.
(§4) Weekly i.p. injections of 3 mg/kg of antisense were performed in the Mtm1^+/y and Mtm1^-/y mice, from 4 to 12 weeks of age. […]

Dnm2 mRNA = Dnm2 mRNA expression by RT-qPCR in C2C12 cells; format: cell-based; conditions: C2C12 mouse myoblast cells, 24 hrs, 20 µM (with PBS control, or with ASO-ctrl)
Procedure: For experiments in mouse immortalized myoblasts (C2C12 cells), the ASOs were electroporated at 2 µM in 2 mm cuvettes, at 150V for 5 ms (one pulse) for 2 million cells in a volume of 400 µl PBS, or in 4mm cuvettes, at 300V for 5 ms (one pulse) for 4 million cells in a volume of 800 µl PBS. Table 2. Antisense oligonucleotides
For experiments conducted in mouse immortalized myoblasts (C2C12 cells), 4-hydroxytamoxifen (5 mg/ml solution, Sigma #SML-1666) was used. The stock solution at 13mM in ethanol:isopropanol (95:5) was diluted in cell culture medium to obtain a working concentration of 20 µM. For vehicle control cells (no treatment), ethanol:isopropanol (95:5) was added to the cell culture medium.
The […] immortalized myoblast cells were cultured in DMEM with 1g/l glucose (Gibco) with 20% FBS (Gibco) + 40 µg/ml Gentamycin (Gibco). The cells were electroporated with either PBS, ASO-ctrl or ASO-Dnm2 at 2 µM, and/or treated with 4-OH-tamoxifen at 20 µM in the cell culture medium, as described in 1.1. The experiment was done in duplicate wells, in 6-well plates. After 24 hrs of treatment, cells were collected and either RNA was extracted for RT-qPCR or protein was extracted for Western Blot. […]

Mtm1^-/y mice [3] = assay: Body weight of Mtm1-/y mice; format: in vivo; conditions: at 12 weeks, mean ± SD, ASO 3 mg/kg i.p. weekly, tamoxifen 10 mg/kg of diet
Procedure: as §1, §2, §3
Weekly i.p. injections of 3 mg/kg of antisense were performed in the Mtm1^+/y and Mtm1^-/y mice, from 4 to 12 weeks of age. Alongside these injections, mice were fed pellets of diets containing tamoxifen citrate (10 mg/kg) or devoid of tamoxifen. […]

Mtm1^-/y mice [4] = assay: Disease Severity Score (DSS) in Mtm1-/y mice; format: in vivo; conditions: at 12 weeks old, score 0 (no disease) to 5 (most severe), ASO 3 mg/kg i.p. weekly, tamoxifen 10 mg/kg of diet
Procedure: as §1, §2, §3, §4
Disease Severity Score was calculated to monitor the clinical appearance of mice (n = 10 per group). […]

Compound: COc1cc(-n2c(S)nc3ccccc3c2=O)c(Cl)cc1Cl [m-divi 1, 3-(2,4-Dichloro-5-methoxyphenyl)-2-sulfanylquinazolin-4(3H)-one]
- IC50 (mitochondrial division): 10 µM

Compound: O=C(NN=Cc1cc(O)c(O)cc1O)c1cc2ccccc2cc1O [hydroxy-Dynasore, 3-hydroxy-N'-[(2,4,5-trihydroxyphenyl)methylidene]naphthalene-2-carbohydrazide]
- IC50 (dynamin 2): 2.6 µM

Compound: CC/C(=C(\c1ccccc1)c1ccc(OCCN(C)C)cc1)c1ccccc1 [tamoxifen, 2-[4-[(Z)-1,2-diphenylbut-1-enyl]phenoxy]-N,N-dimethylethanamine]
- holding time (hanging test) (Mtm1^-/y mice [1]): 35.3 ± 24.4 s
- DNM2 protein expression (DNM2): did not reduce
- survival rate (Mtm1^-/y mice [2]): 70%
- Dnm2 mRNA expression (Dnm2 mRNA): did not reduce
- body weight (Mtm1^-/y mice [3]): 15.3 ± 0.4 g
- Disease Severity Score (DSS), mean score (Mtm1^-/y mice [4]): 3.3
